The melting point is the temperature, or range, at which the solid turns liquid.

Each structure is given as a SMILES string.

Melting point data for 34 compounds are collected here from US7601868B2, “Amine derivative” (Takeda Pharmaceutical Company Limited, priority 2003, dated 2009).

`CCCCCc1ccc(C(=O)NCCc2ccc(C(C)N3CCCC3)cc2)cc1` (stereo not shown) [Example 38, 4-pentyl-N-(2-{4-[1-(1-pyrrolidinyl)ethyl]phenyl}ethyl)benzamide]: the melting point is 76 to 77 °C.
To `CC(c1ccc(CCNC(=O)c2ccc(-c3ccc(Cl)cc3)cc2)cc1)N1CCSCC1` (stereo not shown) [Example 37, 4′-chloro-N-(2-{4-[1-(4-thiomorpholinyl)ethyl]phenyl}ethyl)[1,1′-biphenyl]-4-carboxamide] belongs 168 to 169 °C; to `CC(c1ccc(CCNC(=O)c2ccc(-c3ccc(F)cc3)cc2)cc1)N1CCCC1` (stereo not shown) [Example 13, 4′-fluoro-N-(2-{4-[1-(1-pyrrolidinyl)ethyl]phenyl}ethyl)[1,1′-biphenyl]-4-carboxamide], 141 to 143 °C; to `CC(C)C(c1ccc(CCNC(=O)c2ccc(-c3ccc(Cl)cc3)cc2)cc1)N1CCCC1` (stereo not shown) [Example 36, 4′-chloro-N-(2-{4-[2-methyl-1-(1-pyrrolidinyl)propyl]phenyl}ethyl)[1,1′-biphenyl]-4-carboxamide], 143 to 145 °C.
The figure for `CC(CNC(=O)c1ccc(Br)cc1F)c1ccc(CN2CCCC2)cc1` (stereo not shown) [Example 5, 4-bromo-2-fluoro-N-{2-[4-(1-pyrrolidinylmethyl)phenyl]propyl}benzamide] is 80 to 82 °C; for `COc1ccc(-c2ccc(C(=O)NCCc3ccc(C4CCCN4C)cc3)cc2)cc1` (stereo not shown) [Example 139, 4′-methoxy-N-{2-[4-(1-methyl-2-pyrrolidinyl)phenyl]ethyl}[1,1′-biphenyl]-4-carboxamide] it is 165 to 167 °C; for `O=C(CCc1ccc(CN2CCCC2)cc1)Nc1ccc(Br)cc1` [Reference Example 41, N-(4-bromophenyl)-3-[4-(1-pyrrolidinylmethyl)phenyl]propanamide] it is 137 to 138 °C.
The figure for `CC(c1ccc(CCNC(=O)c2ccc(Br)cc2)cc1)N1CCCC1` (stereo not shown) [Example 10, 4-bromo-N-(2-{4-[1-(1-pyrrolidinyl)ethyl]phenyl}ethyl)benzamide] is 124 to 126 °C.
`CCCCCc1ccc(C(=O)NCCc2ccc(CN3CCCC3)cc2)cc1` [Example 3, 4-pentyl-N-{2-[4-(1-pyrrolidinylmethyl)phenyl]ethyl}benzamide]: the melting point lay within 91 to 93 °C.
To `CCCCCc1ccc(NC(=O)CCc2ccc(CN3CCCC3)cc2)cc1` [compound 40, N-(4-pentylphenyl)-3-[4-(1-pyrrolidinylmethyl)phenyl]propanamide] belongs 104 to 105 °C.
The figure for `CC(CNC(=O)c1ccc(-c2ccc(Cl)cc2)cc1)c1ccc(CN2CCCC2)cc1` (stereo not shown) [Example 8, 4′-chloro-N-{2-[4-(1-pyrrolidinylmethyl)phenyl]propyl}[1,1′-biphenyl]-4-carboxamide] is 156 to 157 °C; for `CN1CCCC1c1ccc(CCNC(=O)c2ccc(OCC3CC3)cc2)cc1` (stereo not shown) [Example 138, 4-cyclopropylmethoxy-N-{2-[4-(1-methyl-2-pyrrolidinyl)phenyl]ethyl}benzamide] it is 143 to 145 °C; for `CC(CNC(=O)c1ccc(-c2ccc(Cl)cc2)cc1F)c1ccc(CN2CCCC2)cc1` (stereo not shown) [Example 6, 4′-chloro-3-fluoro-N-{2-[4-(1-pyrrolidinylmethyl)phenyl]propyl}[1,1′-biphenyl]-4-carboxamide] it is 119 to 121 °C.
To `O=C(Cc1ccc(CN2CCCC2)cc1)NCc1ccc(-c2ccc(Cl)cc2)cc1` [compound 39, N-[(4′-chloro-1,1′-biphenyl-4-yl)methyl]-2-[4-(1-pyrrolidinylmethyl)phenyl]acetamide] belongs 151 to 153 °C.
Compound `CC(c1ccc(CCNC(=O)c2ccc(-c3ccc(C(F)(F)F)cc3)cc2)cc1)N1CCCC1` (stereo not shown) [Example 15, N-(2-{4-[1-(1-pyrrolidinyl)ethyl]phenyl}ethyl)-4′-(trifluoromethyl)[1,1′-biphenyl]-4-carboxamide] yielded a melting point of 149 to 151 °C.
`O=C(NCCc1ccc(CN2CCCC2)cc1)c1ccc(OCC2CC2)cc1F` [Example 140, 4-cyclopropylmethoxy-2-fluoro-N-{2-[4-(1-pyrrolidinylmethyl)phenyl]ethyl}benzamide] showed a melting point of 90 to 92 °C.
`CCCC(=O)Cc1ccc(C(=O)NCCc2ccc(CN3CCCC3)cc2)cc1` [Example 4, 4-(2-oxopentyl)-N-{2-[4-(1-pyrrolidinylmethyl)phenyl]ethyl}benzamide] yielded a melting point of 115 to 117 °C.
`CCC(c1ccc(CCNC(=O)c2ccc(Br)cc2)cc1)N1CCCC1` (stereo not shown) [Example 32, 4-bromo-N-(2-{4-[1-(1-pyrrolidinyl)propyl]phenyl}ethyl)benzamide] registered a melting point of 90 to 92 °C.
To `O=C(COc1ccc(CN2CCCC2)cc1)Nc1ccc(Br)cc1` [Reference Example 46, N-(4-bromophenyl)-2-[4-(1-pyrrolidinylmethyl)phenoxy]acetamide] belongs 143 to 145 °C; to `Cc1ccc(-c2ccc(C(=O)NCCc3ccc(C(C)N4CCCC4)cc3)cc2)cc1` (stereo not shown) [Example 14, 4′-methyl-N-(2-{4-[1-(1-pyrrolidinyl)ethyl]phenyl}ethyl)[1,1′-biphenyl]-4-carboxamide], 160 to 163 °C; to `COc1ccc(-c2ccc(C(=O)NCCc3ccc(C(C)N4CCCC4)cc3)cc2)cc1` (stereo not shown) [Example 12, 4′-methoxy-N-(2-{4-[1-(1-pyrrolidinyl)ethyl]phenyl}ethyl)[1,1′-biphenyl]-4-carboxamide], 163 to 165 °C.
In turn, `CC(c1ccc(CCNC(=O)c2ccc(-c3ccc(OC(F)(F)F)cc3)cc2)cc1)N1CCCC1` (stereo not shown) [Example 16, N-(2-{4-[1-(1-pyrrolidinyl)ethyl]phenyl}ethyl)-4′-(trifluoromethoxy)[1,1′-biphenyl]-4-carboxamide] registered a melting point of 135 to 137 °C.
Take `O=C(NCCc1ccc(CN2CCCC2)cc1)c1ccc(OCCC2CC2)cc1F` [Example 141, 4-(2-cyclopropylethoxy)-2-fluoro-N-{2-[4-(1-pyrrolidinylmethyl)phenyl]ethyl}benzamide]: the melting point was in the range of 66 to 68 °C.
The figure for `O=C(NCCc1ccc(CN2CCCC2)cc1)N1CCC(c2ccc(Cl)cc2)CC1` [Example 1, 4-(4-chlorophenyl)-N-{2-[4-(1-pyrrolidinylmethyl)phenyl]ethyl}-1-piperidinecarboxamide] is 116 to 117 °C; for `CCCCCc1ccc(C(=O)NCC(C)c2ccc(CN3CCCC3)cc2)cc1` (stereo not shown) [Example 9, 4-pentyl-N-{2-[4-(1-pyrrolidinylmethyl)phenyl]propyl}benzamide] it is 91 to 92 °C.
To `O=C(NCCc1ccc(-c2ccc(Cl)cc2)cc1)c1ccc(CN2CCCC2)cc1` [compound 45, N-[2-(4′-chloro-1,1′-biphenyl-4-yl)ethyl]-4-(1-pyrrolidinylmethyl)benzamide] belongs 187 to 189 °C; to `CCC(c1ccc(CCNC(=O)c2ccc(-c3ccc(Cl)cc3)cc2)cc1)N1CCCC1` (stereo not shown) [Example 33, 4′-chloro-N-(2-{4-[1-(1-pyrrolidinyl)propyl]phenyl}ethyl)[1,1′-biphenyl]-4-carboxamide], 151 to 153 °C; to `O=C(/C=C/c1ccc(CN2CCCC2)cc1)Nc1ccc(-c2ccc(Cl)cc2)cc1` [compound 44, (E)-N-(4′-chloro-1,1′-biphenyl-4-yl)-3-[4-(1-pyrrolidinylmethyl)phenyl]-2-propenamide], 207 to 209 °C.
To `CC(c1ccc(CCNC(=O)c2ccc(-c3ccc(Cl)cc3)cc2)cc1)N1CCCC1` (stereo not shown) [Example 11, 4′-chloro-N-(2-{4-[1-(1-pyrrolidinyl)ethyl]phenyl}ethyl)[1,1′-biphenyl]-4-carboxamide] belongs 152 to 153 °C.
`O=C(Cc1ccc(CN2CCCC2)cc1)NCc1ccc(Br)cc1` [Reference Example 38, N-(4-bromobenzyl)-2-[4-(1-pyrrolidinylmethyl)phenyl]acetamide] came in with a melting point of 107 to 109 °C.
As to `O=C(/C=C/c1ccc(CN2CCCC2)cc1)Nc1ccc(Br)cc1` [Reference Example 43, (E)-N-(4-bromophenyl)-3-[4-(1-pyrrolidinylmethyl)phenyl]-2-propenamide], the melting point lay within 184 to 186 °C.
Compound `CN1CCCC1c1ccc(CCNC(=O)c2ccc(-c3ccc(Cl)cc3)cc2)cc1` (stereo not shown) [Example 137, 4′-chloro-N-{2-[4-(1-methyl-2-pyrrolidinyl)phenyl]ethyl}[1,1′-biphenyl]-4-carboxamide] showed a melting point of 169 to 171 °C.
To `CC(c1ccc(CCNC(=O)c2ccc(-c3ccccc3)cc2)cc1)N1CCCC1` (stereo not shown) [Example 31, N-(2-{4-[1-(1-pyrrolidinyl)ethyl]phenyl}ethyl)[1,1′-biphenyl]-4-carboxamide] belongs 136 to 138 °C; to `O=C(CCc1ccc(CN2CCCC2)cc1)Nc1ccc(-c2ccc(Cl)cc2)cc1` [compound 42, N-(4′-chloro-1,1′-biphenyl-4-yl)-3-[4-(1-pyrrolidinylmethyl)phenyl]propanamide], 179 to 181 °C.
